Read-outs that look alike come from different tables or passages of the source.
System: HCV genotype 1b replicon in Huh 7 cells
Assay: HCV replicon assay (luciferase readout, 1b_Huh-Luc/Neo-ET cell line)
Type: cell-based
Settings: Hepatitis C virus, Huh-7, 72 h
Method in brief: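 Huh 7 cells carrying a bicistronic genotype 1b luciferase replicon treated with compound in triplicate for 72 h. Replicon level read as luciferase activity (Bright-Glo), expressed as % of control; EC50 from a sigmoidal Hill-slope fit, repeated several times.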

[1] = read-out: Inhibition of HCV genotype 1b, Table 5, 72 h incubation
[2] = read-out: Inhibition of HCV genotype 1b, Table 3, 72 h incubation
[3] = read-out: Inhibition of HCV genotype 1b, Table 1, 72 h incubation
[4] = read-out: Inhibition of HCV genotype 1b, Table 4, 72 h incubation

Row | SMILES | EC50 [1] [nM] | also measured
1 | COC(=O)N[C@H](C(=O)N1CCC[C@H]1c1ncc(-c2ccc(C34CCC(c5cnc([C@@H]6CCCN6C(=O)[C@@H](NC(=O)OC)C(C)C)[nH]5)(CC3)CC4)cc2)[nH]1)C(C)C [compound 627] | < 1 | 
2 | C[C@H](NC(=O)[C@H](NC(=O)C1CC1)c1ccccc1)c1ncc(C2CCN(c3c(F)cc(-c4cnc([C@@H]5CCCN5C(=O)[C@H](NC(=O)C5CC5)c5ccccc5)[nH]4)cc3F)CC2)[nH]1 [compound 514] |  | EC50 [2]: < 1 nM
3 | COC(=O)N[C@H](C(=O)N1CCC[C@H]1c1ncc(-c2ccc([C@H]3CC[C@](C)(c4cnc([C@@H]5CCCN5C(=O)[C@@H](NC(=O)OC)C(C)C)[nH]4)CC3)cc2)[nH]1)C(C)C [compound 2005] |  | EC50 [3]: < 1 nM
4 | COC(=O)N[C@H](C(=O)N1CCC[C@H]1c1ncc(C23CCC(c4ccc(-c5cnc([C@@H]6CCCN6C(=O)[C@H](C(C)C)N(C)C(=O)OC)[nH]5)cc4)(CC2)CC3)[nH]1)C(C)C [compound 912] | < 1 | 
5 | COC(=O)N[C@H](C(=O)N1CCC[C@H]1c1ncc(C23CCC(c4ccc(-c5cnc([C@@H]6CCCN6C(=O)[C@H](NC(=O)OC)c6ccccc6)[nH]5)cc4)(CC2)CC3)[nH]1)C(C)C [compound 617] | < 1 | 
6 | COC(=O)N[C@H](C(=O)N1CCC[C@H]1c1nc2ccc(-c3ccc(-c4ccc5nc([C@@H]6CCCN6C(=O)[C@@H](NC(=O)OC)C6CCOCC6)[nH]c5c4)cc3)cc2[nH]1)C1CCOCC1 [compound 2039] |  | EC50 [4]: < 1 nM
7 | COC(=O)N[C@H](C(=O)N1CCC[C@H]1c1ncc(C23CCC(c4ccc(-c5cnc([C@@H]6CCCN6C(=O)[C@H](NC(=O)OC6CCOCC6)C(C)C)[nH]5)cc4)(CC2)CC3)[nH]1)C(C)C [compound 2080] | < 1 | 
8 | COC(=O)N[C@H](C(=O)N1CCC[C@H]1c1ncc(C23CCC(c4ccc(-c5cnc([C@@H]6CCCN6C(=O)[C@H](NC(=O)N6CCC(O)CC6)c6ccccc6)[nH]5)cc4)(CC2)CC3)[nH]1)C(C)C [compound 2101] | < 1 | 
9 | COC(=O)N[C@H](C(=O)N1CCOC[C@H]1c1ncc(-c2cc(F)c(N3CCC(c4cnc([C@@H]5CCCN5C(=O)[C@@H](NC(=O)OC)C(C)C)[nH]4)CC3)c(F)c2)[nH]1)C(C)C [compound 509] |  | EC50 [2]: < 1 nM
10 | COC(=O)N[C@H](C(=O)N1CCC[C@H]1c1ncc(-c2ccc(C34CCC(c5cnc([C@@H]6CCCN6C(=O)[C@H](C(C)C)N6CCC(O)CC6)[nH]5)(CC3)CC4)cc2)[nH]1)C(C)C [compound 2058] | < 1 | 
11 | COC(=O)N[C@H](C(=O)N1CCC[C@H]1c1ncc(-c2ccc(C34CCC(c5cnc([C@@H]6CCCN6C(=O)[C@@H](NC(=O)C6CCOCC6)C(C)C)[nH]5)(CC3)CC4)cc2)[nH]1)C(C)C [compound 641] | > 1000 | 
12 | COC(=O)N[C@@H](C(=O)N1CCC[C@H]1c1nc2ccc(-c3ccc(-c4ccc5nc([C@@H]6CCCN6C(=O)[C@H](NC(=O)OC)C(C)C)[nH]c5c4)cc3)cc2[nH]1)C(C)C [compound 2035] |  | EC50 [4]: 10 to 999 nM
13 | COC(=O)N[C@@H](C(=O)N1CCC[C@H]1c1ncc(-c2cc(F)c(N3CCC(c4cnc([C@@H]5COCCN5C(=O)[C@H](NC(=O)OC(C)(C)C)c5ccccc5)[nH]4)CC3)c(F)c2)[nH]1)c1ccccc1 [compound 489] |  | EC50 [2]: < 1 nM
14 | COC(=O)N[C@@H](C(=O)N1CCC[C@H]1c1ncc(-c2cc(F)c(N3CCC(c4cnc([C@@H]5CCCN5C(=O)[C@H](NC(=O)N5CCN(C)CC5)c5ccccc5)[nH]4)CC3)c(F)c2)[nH]1)c1ccccc1 [compound 462] |  | EC50 [2]: < 1 nM
15 | COC(=O)N[C@H](C(=O)N1CCC[C@H]1c1ncc(-c2ccc(C34CCC(c5cnc([C@@H]6CCCN6C(=O)[C@@H](NC(=O)OC6CCOCC6)C(C)C)[nH]5)(CC3)CC4)cc2)[nH]1)C(C)C [compound 2053] | 1 to 9.9 | 
16 | O=C(N[C@@H](C(=O)N1CCC[C@H]1CNC(=O)C12CCC(c3ccc(-c4cnc([C@@H]5CCCN5C(=O)[C@H](NC(=O)N5CCOCC5)c5ccccc5)[nH]4)cc3)(CC1)CC2)c1ccccc1)N1CCOCC1 [compound 603] | 1 to 9.9 | 
17 | COC(=O)N[C@@H](C(=O)N1CCC[C@H]1c1ncc(-c2cc(F)c(N3CCC(c4cnc([C@@H]5CCCCN5C(=O)[C@H](NC(=O)OC)c5ccccc5)[nH]4)CC3)c(F)c2)[nH]1)c1ccccc1 [compound 487] |  | EC50 [2]: < 1 nM
18 | COC(=O)N[C@@H](C(=O)N1CCC[C@H]1c1ncc(-c2ccc(C34CCC(c5cnc([C@@H]6CCCN6C(=O)[C@H](OC)c6ccccc6)[nH]5)(CC3)CC4)cc2)[nH]1)c1ccccc1 [compound 615] | < 1 | 
19 | COC(=O)N[C@H](C(=O)N1CCC[C@H]1c1ncc(-c2ccc(C34CCC(c5cnc([C@@H]6CCCN6C(=O)[C@H](NC6CCOCC6)c6ccccc6)[nH]5)(CC3)CC4)cc2)[nH]1)C(C)C [compound 2064] | < 1 | 
20 | COC(=O)N[C@@H](C(=O)N1CCC[C@H]1c1ncc(-c2cc(F)c(N3CCC(c4cnc([C@@H]5CCCN5C(=O)[C@H](NC(=O)OC)c5ccccc5)[nH]4)CC3)c(F)c2)[nH]1)c1ccccc1 [compound 459] |  | EC50 [2]: < 1 nM
21 | COC(=O)N[C@H](C(=O)N1CCC[C@H]1c1ncc(C23CCC(c4ccc(-c5cnc([C@@H]6CCCN6C(=O)[C@H](NC(=O)N6CCC(O)CC6)C(C)C)[nH]5)cc4)(CC2)CC3)[nH]1)C(C)C [compound 2076] | < 1 | 
22 | O=C(N[C@H]1CC[C@@H](c2ccc(-c3cnc([C@@H]4CCCN4C(=O)[C@H](NC(=O)N4CCOCC4)c4ccccc4)[nH]3)cc2)CC1)[C@@H]1CCCN1C(=O)[C@H](NC(=O)N1CCOCC1)c1ccccc1 [compound 355] |  | EC50 [3]: 1 to 9.9 nM
23 | COC(=O)N[C@H](C(=O)N1CCC[C@H]1c1ncc(C23CCC(c4ccc(-c5cnc([C@@H]6CCCN6C(=O)[C@@H](c6ccccc6)N6CCCCC6)[nH]5)cc4)(CC2)CC3)[nH]1)C(C)C [compound 2069] | < 1 | 
24 | O=C(N[C@@H](C(=O)N1CCC[C@H]1c1ncc(-c2ccc(C3CCC(c4cnc([C@@H]5CCCN5C(=O)[C@H](NC(=O)C5CC5)c5ccccc5)[nH]4)CC3)cc2)[nH]1)c1ccccc1)C1CC1 (stereo partly drawn) [compound 371] |  | EC50 [3]: < 1 nM
25 | CC(C)(C)OC(=O)N[C@@H](C(=O)N1CCC[C@H]1c1ncc(-c2ccc(C34CCC(c5cnc([C@@H]6CCCN6C(=O)[C@H](NC(=O)OC(C)(C)C)c6ccccc6)o5)(CC3)CC4)cc2)[nH]1)c1ccccc1 [compound 605] | 1 to 9.9 | 
26 | CC(C)[C@H](NC(=O)N1CCOCC1)C(=O)N1CCC[C@H]1c1ncc(-c2ccc([C@H]3CC[C@H](c4cnc([C@@H]5CCCN5C(=O)[C@@H](NC(=O)N5CCOCC5)C(C)C)[nH]4)CC3)cc2)[nH]1 [compound 385] |  | EC50 [3]: 10 to 999 nM
27 | COC(=O)N[C@H](C(=O)N1CCC[C@H]1c1nc2ccc(-c3ccc(-c4ccc5nc([C@H](C)NC(=O)[C@H](C(C)C)N(C)C)[nH]c5c4)cc3)cc2[nH]1)C(C)C [compound 935] |  | EC50 [4]: < 1 nM
28 | COC(=O)N[C@@H](C)C(=O)N1CCC[C@H]1c1ncc(-c2ccc(C34CCC(c5cnc([C@@H]6CCCN6C(=O)[C@@H](NC(=O)OC)C(C)C)[nH]5)(CC3)CC4)cc2)[nH]1 [compound 2081] | < 1 | 
29 | COC(=O)N[C@H](C(=O)N1CCC[C@H]1c1ncc(C23CCC(c4ccc(-c5cnc([C@@H]6CCCN6C(=O)[C@H](NC(=O)N6CCCCC6)C(C)C)[nH]5)cc4)(CC2)CC3)[nH]1)C(C)C [compound 2075] | < 1 | 
30 | CC[C@H](C)[C@H](NC(=O)OC)C(=O)N1CCC[C@H]1c1ncc(-c2ccc(C34CCC(c5cnc([C@@H]6CCCN6C(=O)[C@@H](NC(=O)OC)C(C)C)[nH]5)(CC3)CC4)cc2)[nH]1 [compound 2073] | < 1 | 

Reference: US9120779B2, “Inhibitors of HCV NS5A” (PRESIDIO PHARMACEUTICALS, INC., priority 2008, dated 2015)
